{"source": "patent US9028856B2", "about": "“Synergistic pesticide compositions” (priority 2008, dated 2015)", "key": {"[1]": {"test_system": "Red Imported Fire ant (RIFA), Solenopsis invicta", "experiment": "Knockdown/mortality of ant workers under continuous exposure on treated glazed tile", "assay_type": "in vivo", "conditions": "Table 44, aqueous permethrin/adjuvant, glazed tile", "excerpt": "Treatments were allowed to dry overnight. […] Treatments were replicated minimum three times.\n(§1) Treatments were allowed to dry overnight. […] Treatments were replicated a minimum of three times."}, "[2]": {"test_system": "susceptible/normal German cockroach (Monheim strain), Blattella germanica", "experiment": "Knockdown/mortality of male cockroaches under continuous exposure on treated glazed tile", "assay_type": "in vivo", "conditions": "Table 45, aqueous permethrin/adjuvant, glazed tile, Monheim strain", "method_in_brief": "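Male cockroaches continuously exposed on treated glazed tile, dried overnight before exposure; at least three replicates. Knockdown/mortality scored at intervals from 5 or 10 min, over runs lasting 20 min to 24 h depending on test.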"}, "[3]": {"test_system": "Argentine ant, Linepithema humile", "experiment": "Knockdown/mortality of ant workers under continuous exposure on treated glazed tile", "conditions": "Table 41, aqueous permethrin/adjuvant, glazed tile", "method_in_brief": "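0.5% AI imidacloprid in acetone, alone or with 0.1, 1.0 or 5.0% additive (benzenepropanoic acid, oleic acid, methyl oleate, methyl linoleate, methyl palmitate or BHA), 1 ml dried overnight on glazed tile (~161 cm^2). Ten workers confined under continuous exposure, water from 3 h; knockdown/mortality scored at intervals and 24 h; ≥3 replicates.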"}, "Aedes aegypti mosquito": {"test_system": "Aedes aegypti mosquito", "experiment": "USDA Petri Dish Method, 3 min exposure to dipped fiberglass window screen", "assay_type": "in vivo", "conditions": "dipped screen, 3 min exposure", "protocol": "MATERIALS AND METHODS: Aqueous solutions of 1% deltamethrin with and without an adjuvant composition, which is sold under the tradename Suspend® SC. […] Pre-cut fiberglass screen (5″×5″, or 161.3 cm^2) were dipped in each treatment solution and excessive solution was allowed to drain completely (see FIG. 23 a). Weight of the solution coated on the screen was then determined. The treated screen was then allowed to air-dry overnight. USDA Petri Dish Method was used as initial screening protocol (see FIG. 23 b). Twenty, 4-6 day old female Aedes aegypti were exposed to treated window screen for 3 minutes and then moved onto a clean untreated white paper index card. Treatments were replicated a minimum of three times. Mosquito knockdown was evaluated at 3 minute intervals for the first 15 minutes and then at 5 minute intervals for the remainder of an hour. A small cotton ball with sucrose solution was added on the screen top of the Petri dish as a drinking source. Mortality was evaluated at 24 hours after exposure.\nMATERIALS AND METHODS: Several rates of permethrin without adjuvant were prepared using product sold under the tradename Permanone® 40 to determine an effective rate against Aedes aegypti mosquitoes. After determining an effective rate range, aqueous solutions of permethrin at 1.25, 1.0 and 0.05% AI were prepared with and without adjuvant. […] Pre-cut fiberglass screens (5″×5″ or 161.3 cm^2) were dipped in each treatment solution allowing excessive solution to drain completely. Weight of the solution coated on the screen was then determined. The treated screen was then allowed to air-dry overnight. USDA Petri Dish Method was used as initial screening protocol (see photo, right). Twenty, 4-6 day old female Aedes aegypti were exposed to treated window screen for 3 minutes and then moved to a clean untreated white paper index card. Treatments were replicated a minimum of three times. Mosquito knockdown was evaluated at 3 minute intervals for the first 15 minutes and then at 5 minute intervals for the remainder of an hour. A small cotton ball with sucrose solution was added on the screen top of the petri-dish as a drinking source. Mortality was evaluated at 24 hours after exposure."}, "[4]": {"test_system": "Odorous House ant, Tapinoma sessile", "experiment": "Knockdown/mortality of ant workers under continuous exposure on treated glazed tile", "assay_type": "in vivo", "conditions": "Table 43, aqueous permethrin/adjuvant, glazed tile", "method_in_brief": "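Treatments applied to about 161 cm2 glazed tile and dried overnight, with at least three replicates.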"}, "[5]": {"test_system": "bait averse/resistant German cockroach (IHOP strain), Blattella germanica", "experiment": "Knockdown/mortality of male cockroaches under continuous exposure on treated glazed tile", "assay_type": "in vivo", "conditions": "Table 42, aqueous permethrin/adjuvant, IHOP strain", "protocol": "Treatments were allowed to dry overnight. […] Treatments were replicated a minimum of three times. Evaluations for cockroach knockdown/mortality were made at various intervals for 1 hour and at 24 hours after exposure.\nTreatments were allowed to dry overnight. […] Evaluations for cockroach knockdown/mortality were made at various intervals and at 60 minutes after exposure.\nas §1"}, "[6]": {"test_system": "Musca domestica, resistant strain Reichswald", "experiment": "Efficacy of formulations on surfaces (glazed/unglazed tiles), house flies, continuous exposure", "assay_type": "in vivo", "conditions": "strain RW resistant, acetone solutions on glazed tiles, mean of three replicates", "protocol": "All surfaces were provided with talcum-coated glass rings (diameter 9.5 cm, height 5.5 cm) one day later.\nThe test insects were anesthetized with CO2, 20 individuals were placed onto the treated surfaces and the glass ring was covered with wire gauze ring. […]\nEach test consisted of at least one replicate and any additional replicates are noted.\nTest Insects: House flies (Musca domestica) of both sexes, susceptible strain WHO(N) and resistant strain Reichswald\nEvaluation: Mortality was evaluated cumulatively at different times. […]\nTest Insects: Culex quinquefasciatus (adults) (3 minutes exposure time according to USDA Petri Dish Method), Musca domestica (adults), susceptible and resistant strain, Blattella germanica (males), Cimex lectularius (adults) (all: continuous exposure time)\nApplication: The EC formulation (diluted with water 1:9) were applied as 0.85 ml solutions onto glazed tiles (15 cm×15 cm)"}, "[7]": {"test_system": "Musca domestica, resistant strain Reichswald", "experiment": "Efficacy of formulations on surfaces (glazed/unglazed tiles), house flies, continuous exposure", "assay_type": "in vivo", "conditions": "strain RW resistant, acetone solutions on glazed tiles, mean of three replicates", "remark": "listed apart in the source"}, "[8]": {"conditions": "Table 39, permethrin without adjuvant (Permanone 40)"}, "[9]": {"conditions": "Table 40, aqueous permethrin/adjuvant"}}}
{"molecule": "CC1(C)C(C=C(Cl)Cl)C1C(=O)OCc1cccc(Oc2ccccc2)c1", "note": "(centres unmarked) [Permethrin (0.5%)]", "values": [{"measurement": "Average % Mortality after 5 min", "setting": "[1]; 5 min", "value": 43, "unit": "%"}, {"measurement": "Average % Mortality after 15 min", "setting": "[1]; 15 min", "value": 100, "unit": "%"}, {"measurement": "Average % Mortality after 30 min", "setting": "[1]; 30 min", "value": 100, "unit": "%"}, {"measurement": "Average % Mortality after 60 min", "setting": "[1]; 60 min", "value": 100, "unit": "%"}, {"measurement": "Average % Mortality after 10 min", "setting": "[2]; 10 min", "value": 100, "unit": "%"}, {"measurement": "Average % Mortality after 20 min", "setting": "[2]; 20 min", "value": 100, "unit": "%"}, {"measurement": "Average % Mortality after 30 min", "setting": "[2]; 30 min", "value": 100, "unit": "%"}, {"measurement": "Average % Mortality after 4 hr", "setting": "[2]; 4 hr", "value": 100, "unit": "%"}, {"measurement": "Average % Mortality after 5 min", "setting": "[3]; 5 min", "value": 58, "unit": "%"}, {"measurement": "Average % Mortality after 10 min", "setting": "[3]; 10 min", "value": 100, "unit": "%"}, {"measurement": "Average % Mortality after 15 min", "setting": "[3]; 15 min", "value": 100, "unit": "%"}, {"measurement": "Average % Mortality after 20 min", "setting": "[3]; 20 min", "value": 100, "unit": "%"}, {"measurement": "Average % Knockdown & Mortality after 3 min", "setting": "Aedes aegypti mosquito; [8]", "value": 0, "unit": "%"}, {"measurement": "Average % Knockdown & Mortality after 3 min", "setting": "Aedes aegypti mosquito; [9]", "value": 0, "unit": "%"}, {"measurement": "Average % Knockdown & Mortality after 9 min", "setting": "Aedes aegypti mosquito; [8]", "value": 0, "unit": "%"}, {"measurement": "Average % Knockdown & Mortality after 9 min", "setting": "Aedes aegypti mosquito; [9]", "value": 1, "unit": "%"}, {"measurement": "Average % Knockdown & Mortality after 15 min", "setting": "Aedes aegypti mosquito; [8]", "value": 0, "unit": "%"}, {"measurement": "Average % Knockdown & Mortality after 15 min", "setting": "Aedes aegypti mosquito; [9]", "value": 1, "unit": "%"}, {"measurement": "Average % Knockdown & Mortality after 30 min", "setting": "Aedes aegypti mosquito; [8]", "value": 0, "unit": "%"}, {"measurement": "Average % Knockdown & Mortality after 30 min", "setting": "Aedes aegypti mosquito; [9]", "value": 0, "unit": "%"}, {"measurement": "Average % Knockdown & Mortality after 60 min", "setting": "Aedes aegypti mosquito; [8]", "value": 0, "unit": "%"}, {"measurement": "Average % Knockdown & Mortality after 60 min", "setting": "Aedes aegypti mosquito; [9]", "value": 0, "unit": "%"}, {"measurement": "Average % Knockdown & Mortality after 24 hr", "setting": "Aedes aegypti mosquito; [8]", "value": 9, "unit": "%"}, {"measurement": "Average % Knockdown & Mortality after 24 hr", "setting": "Aedes aegypti mosquito; [9]", "value": 6, "unit": "%"}, {"measurement": "Average % Mortality after 10 min", "setting": "[4]; 10 min", "value": 13, "unit": "%"}, {"measurement": "Average % Mortality after 20 min", "setting": "[4]; 20 min", "value": 50, "unit": "%"}, {"measurement": "Average % Mortality after 30 min", "setting": "[4]; 30 min", "value": 93, "unit": "%"}, {"measurement": "Average % Mortality after 60 min", "setting": "[4]; 60 min", "value": 100, "unit": "%"}, {"measurement": "Average % Mortality after 10 min", "setting": "[5]; 10 min", "value": 40, "unit": "%"}, {"measurement": "Average % Mortality after 20 min", "setting": "[5]; 20 min", "value": 87, "unit": "%"}, {"measurement": "Average % Mortality after 40 min", "setting": "[5]; 40 min", "value": 93, "unit": "%"}, {"measurement": "Average % Mortality after 60 min", "setting": "[5]; 60 min", "value": 100, "unit": "%"}]}
{"molecule": "CC1(C)[C@H](C(=O)O[C@H](C#N)c2cccc(Oc3ccccc3)c2)[C@@H]1C=C(Br)Br", "note": "[0.020% DTM]", "values": [{"measurement": "% Mortality after", "setting": "[6]; 15′", "value": 0, "unit": "%"}, {"measurement": "% Mortality after", "setting": "[6]; 30′", "value": 0, "unit": "%"}, {"measurement": "% Mortality after", "setting": "[6]; 1 h", "value": 0, "unit": "%"}, {"measurement": "% Mortality after", "setting": "[6]; 3 h", "value": 0, "unit": "%"}, {"measurement": "% Mortality after", "setting": "[7]; 2 h", "value": 0, "unit": "%"}, {"measurement": "% Mortality after", "setting": "[7]; 24 h", "value": 7, "unit": "%"}]}
